The values below come from article PMC3985856 (Biochemistry, 2014).

This assay concerns the target T1, BAL (benzaldehyde lyase) (Pseudomonas fluorescens, UniProt Q9F4L3).
T1 sequence (Q9F4L3 1-563): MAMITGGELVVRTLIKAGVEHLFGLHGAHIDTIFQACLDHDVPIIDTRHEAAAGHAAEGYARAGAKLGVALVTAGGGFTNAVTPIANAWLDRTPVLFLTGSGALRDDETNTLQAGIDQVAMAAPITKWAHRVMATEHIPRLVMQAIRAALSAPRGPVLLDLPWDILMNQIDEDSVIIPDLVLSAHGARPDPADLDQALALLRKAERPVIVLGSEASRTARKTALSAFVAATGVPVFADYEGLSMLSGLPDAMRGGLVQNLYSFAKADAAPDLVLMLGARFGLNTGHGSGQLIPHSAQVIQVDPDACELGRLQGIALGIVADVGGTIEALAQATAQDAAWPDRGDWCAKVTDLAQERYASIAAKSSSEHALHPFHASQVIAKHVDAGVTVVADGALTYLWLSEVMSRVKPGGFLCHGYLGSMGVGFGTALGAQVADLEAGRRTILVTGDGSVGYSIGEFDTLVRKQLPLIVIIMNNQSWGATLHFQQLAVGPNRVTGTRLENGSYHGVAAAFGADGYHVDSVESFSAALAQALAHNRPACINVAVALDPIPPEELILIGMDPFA
Kind of assay: CD titration, Hill fit. It is filed as binding. As to conditions: pH 8.0, 50 mM Tris, 0.2 mM ThDP, 1 mM MgCl2, 30 °C; covalent adduct with ThDP.

The compound `O=C(O)C(=O)/C=C/c1ccc(Cl)cc1` [CPB, (E)-4-(4-chlorophenyl)-2-oxo-3-butenoic acid] came in with a dissociation constant (Kd) of 1100 µM.

Usually Kd stands for the equilibrium constant for the complex coming apart. Read a low Kd as a tighter complex.
